Assays:
barnyardgrass [1] = assay: Test A pre-/postemergence herbicide test; type: in vivo, Echinochloa crus-galli
How it was run: (§1)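 Plants are held in greenhouse about ten days after treatment, then compared with untreated controls and scored 0 (no effect) to 100 (complete control). Preemergence dosing is a directed soil spray on sown sandy loam; postemergence dosing is spray to runoff at 2–10 cm height.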

large crabgrass [2] = assay: Test A pre-/postemergence herbicide test; type: in vivo, Digitaria sanguinalis
How it was run: as §1

giant foxtail [3] = assay: Test A pre-/postemergence herbicide test; type: in vivo, Setaria faberi
How it was run: as §1

morningglory [4] = assay: Test A pre-/postemergence herbicide test; type: in vivo, Ipomoea spp.
How it was run: as §1

redroot pigweed = assay: Test A pre-/postemergence herbicide test; type: in vivo, Amaranthus retroflexus
How it was run: as §1

velvetleaf [5] = assay: Test A pre-/postemergence herbicide test; type: in vivo, Abutilon theophrasti
How it was run: as §1

barnyardgrass [6] = assay: Test B pre-/postemergence herbicide test; type: in vivo, Echinochloa crus-galli; conditions: for Barnyardgrass plant response rating: postemergence, visual rating, scale 0 (no effect) to 100 (complete control)
How it was run: (§2)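 Species tested were Echinochloa crus-galli, Ipomoea coccinea, Xanthium strumarium and Oryza sativa, treated both before emergence and at the 1- to 4-leaf stage; rice and barnyardgrass were also tested under flooding at 2 leaves. Greenhouse incubation lasted 13–15 days before visual 0–100 scoring.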

Surinam grass = assay: Test B pre-/postemergence herbicide test; type: in vivo, Urochloa decumbens; conditions: for Surinam Grass plant response rating: postemergence, visual rating, scale 0 (no effect) to 100 (complete control)
How it was run: (§3)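 Test chemicals in a non-phytotoxic solvent mixture with surfactant were applied preemergence to seeded species and postemergence to plants 2-18 cm tall (1- to 4-leaf stage); rice and barnyardgrass were also tested in a flooded paddy at the 2-leaf stage. Visual rating versus controls after 13-15 days in greenhouse, scale 0 (no effect) to 100 (complete control).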

cocklebur = assay: Test B pre-/postemergence herbicide test; type: in vivo, Xanthium strumarium; conditions: for Cocklebur plant response rating: postemergence, visual rating, scale 0 (no effect) to 100 (complete control)
How it was run: as §2

corn = assay: Test B pre-/postemergence herbicide test; type: in vivo, Zea mays; conditions: for Corn plant response rating: postemergence, visual rating, scale 0 (no effect) to 100 (complete control)
How it was run: as §3

large crabgrass [7] = assay: Test B pre-/postemergence herbicide test; type: in vivo, Digitaria sanguinalis; conditions: for Crabgrass, Large plant response rating: postemergence, visual rating, scale 0 (no effect) to 100 (complete control)
How it was run: as §3

giant foxtail [8] = assay: Test B pre-/postemergence herbicide test; type: in vivo, Setaria faberi; conditions: for Foxtail, Giant plant response rating: postemergence, visual rating, scale 0 (no effect) to 100 (complete control)
How it was run: as §3

lambsquarters = assay: Test B pre-/postemergence herbicide test; type: in vivo, Chenopodium album; conditions: for Lambsquarters plant response rating: postemergence, visual rating, scale 0 (no effect) to 100 (complete control)
How it was run: as §3

morningglory [9] = assay: Test B pre-/postemergence herbicide test; type: in vivo, Ipomoea coccinea; conditions: for Morningglory plant response rating: postemergence, visual rating, scale 0 (no effect) to 100 (complete control)
How it was run: as §2

pigweed = assay: Test B pre-/postemergence herbicide test; type: in vivo, Amaranthus retroflexus; conditions: for Pigweed plant response rating: postemergence, visual rating, scale 0 (no effect) to 100 (complete control)
How it was run: as §3

velvetleaf [10] = assay: Test B pre-/postemergence herbicide test; type: in vivo, Abutilon theophrasti; conditions: for Velvetleaf plant response rating: postemergence, visual rating, scale 0 (no effect) to 100 (complete control)
How it was run: as §3

blackgrass = assay: Test B postemergence herbicide test; type: in vivo, Alopecurus myosuroides; conditions: postemergence, visual rating, scale 0 (no effect) to 100 (complete control)
How it was run: (§4)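 Plants grow to 1- to 4-leaf stage (2–18 cm) for postemergence spraying, or to 2-leaf stage for the paddy test. Formulated compound is applied. Greenhouse holding lasts 13–15 days. Response is scored visually relative to controls, 0 no effect to 100 complete control; a dash means no result.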

wheat = assay: Test B postemergence herbicide test; type: in vivo, Triticum aestivum; parameters: key to Wheat plant response rating: 0 = no effect, 100 = complete control; conditions: postemergence, visual rating, scale 0 (no effect) to 100 (complete control)
How it was run: (§5)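 Visual ratings, 0 (no effect) to 100 (complete control), made versus controls after 13–15 d greenhouse. Paddy plants treated at 2-leaf stage; postemergence plants at 1- to 4-leaf stage, 2–18 cm tall.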

wild oat = assay: Test B postemergence herbicide test; type: in vivo, Avena fatua; conditions: postemergence, visual rating, scale 0 (no effect) to 100 (complete control)
How it was run: as §5

rice = assay: Test B flooded paddy test; type: in vivo, Oryza sativa; conditions: 1000 g ai/ha, visual rating, scale 0 to 100 (0 no effect, 100 complete control), 13 to 15 days
How it was run: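 Paddy species grown to the 2-leaf stage under flooding; blackgrass sprayed postemergence at 2–18 cm (1- to 4-leaf stage). Plants kept in a greenhouse for 13 to 15 days, then visually rated against controls on 0 (no effect) to 100 (complete control).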

[11] = test system: small flower umbrella sedge; assay: Test B flooded paddy test; type: in vivo, Cyperus difformis; conditions: 1000 g ai/ha, visual rating, scale 0 to 100 (0 no effect, 100 complete control), 13 to 15 days
How it was run: as §4

ducksalad = assay: Test B flooded paddy test; type: in vivo, Heteranthera limosa; conditions: 1000 g ai/ha, visual rating, scale 0 to 100 (0 no effect, 100 complete control), 13 to 15 days
How it was run: as §4

barnyardgrass [12] = assay: Test B flooded paddy test; type: in vivo, Echinochloa crus-galli; conditions: 1000 g ai/ha, visual rating, scale 0 to 100 (0 no effect, 100 complete control), 13 to 15 days
How it was run: as §4

[13] = Postemergence, 500 g ai/ha, 0 to 100 scale, 0 no effect, 100 complete control
[14] = Postemergence, 2000 g ai/ha, 0 to 100 scale, 0 no effect, 100 complete control
[15] = Preemergence, 2000 g ai/ha, visual rating, 0 to 100 scale (0 no effect, 100 complete control)
[16] = preemergence, 500 g ai/ha, visual injury, 0 to 100 scale (0 no effect, 100 complete control)
[17] = 125 g ai/ha, 0 = no effect, 100 = complete control, preemergence
[18] = 500 g ai/ha, visual rating 0-100, 0 no effect, 100 complete control, preemergence

## CC(=O)c1cccc(NC(=O)c2cn(C(C)C)nc2C)c1 [Compound 179]
Barnyardgrass [1]; [13]
  Barnyardgrass plant response rating: 5
Barnyardgrass [1]; [14]
  Plant response rating, Barnyardgrass: 10
Barnyardgrass [1]; [15]
  Barnyardgrass plant response rating: 40
Barnyardgrass [1]; [16]
  Barnyardgrass plant response rating: 0
Large crabgrass [2]; [13]
  Crabgrass, Large plant response rating: 10
Large crabgrass [2]; [14]
  Plant response rating, Crabgrass, Large: 10
Large crabgrass [2]; [15]
  Crabgrass, Large plant response rating: 50
Large crabgrass [2]; [16]
  Crabgrass, Large plant response rating: 0
Giant foxtail [3]; [13]
  Foxtail, Giant plant response rating: 0
Giant foxtail [3]; [14]
  Plant response rating, Foxtail, Giant: 10
Giant foxtail [3]; [15]
  Foxtail, Giant plant response rating: 10
Giant foxtail [3]; [16]
  Foxtail, Giant plant response rating: 0
Morningglory [4]; [13]
  Morningglory plant response rating: 10
Morningglory [4]; [14]
  Plant response rating, Morningglory: 30
Morningglory [4]; [15]
  Morningglory plant response rating: 5
Morningglory [4]; [16]
  Morningglory plant response rating: 0
Redroot pigweed; [13]
  Pigweed plant response rating: 0
Redroot pigweed; [14]
  Plant response rating, Pigweed: 10
Redroot pigweed; [15]
  Pigweed plant response rating: 35
Redroot pigweed; [16]
  Pigweed plant response rating: 0
Velvetleaf [5]; [13]
  Velvetleaf plant response rating: 0
Velvetleaf [5]; [14]
  Plant response rating, Velvetleaf: 5
Velvetleaf [5]; [15]
  Velvetleaf plant response rating: 0
Velvetleaf [5]; [16]
  Velvetleaf plant response rating: 0
Barnyardgrass [6]; [17]
  Barnyardgrass plant response rating (0 to 100 scale): 0
Barnyardgrass [6]; [18]
  Plant response rating, Barnyardgrass: 0
Barnyardgrass [6]; 125 g ai/ha
  Barnyardgrass plant response rating: 0
Barnyardgrass [6]; 500 g ai/ha
  Barnyardgrass plant response rating: 0
Surinam grass; [17]
  Surinam Grass plant response rating (0 to 100 scale): 0
Surinam grass; [18]
  Plant response rating, Surinam Grass: 0
Surinam grass; 125 g ai/ha
  Surinam Grass plant response rating: 0
Surinam grass; 500 g ai/ha
  Surinam Grass plant response rating: 0
cocklebur; [17]
  Cocklebur plant response rating (0 to 100 scale): 0
cocklebur; [18]
  Plant response rating, Cocklebur: 0
cocklebur; 125 g ai/ha
  Cocklebur plant response rating: 0
cocklebur; 500 g ai/ha
  Cocklebur plant response rating: 0
corn; [17]
  Corn plant response rating (0 to 100 scale): 0
corn; [18]
  Plant response rating, Corn: 0
corn; 125 g ai/ha
  Corn plant response rating: 0
corn; 500 g ai/ha
  Corn plant response rating: 0
Large crabgrass [7]; [17]
  Crabgrass, Large plant response rating (0 to 100 scale): 0
Large crabgrass [7]; [18]
  Plant response rating, Crabgrass, Large: 0
Large crabgrass [7]; 125 g ai/ha
  Crabgrass, Large plant response rating: 0
Large crabgrass [7]; 500 g ai/ha
  Crabgrass, Large plant response rating: 0
Giant foxtail [8]; [17]
  Foxtail, Giant plant response rating (0 to 100 scale): 0
Giant foxtail [8]; [18]
  Plant response rating, Foxtail, Giant: 0
Giant foxtail [8]; 125 g ai/ha
  Foxtail, Giant plant response rating: 0
Giant foxtail [8]; 500 g ai/ha
  Foxtail, Giant plant response rating: 0
lambsquarters; [17]
  Lambsquarters plant response rating (0 to 100 scale): 0
lambsquarters; [18]
  Plant response rating, Lambsquarters: 0
lambsquarters; 125 g ai/ha
  Lambsquarters plant response rating: 0
lambsquarters; 500 g ai/ha
  Lambsquarters plant response rating: 0
Morningglory [9]; [17]
  Morningglory plant response rating (0 to 100 scale): 0
Morningglory [9]; [18]
  Plant response rating, Morningglory: 0
Morningglory [9]; 125 g ai/ha
  Morningglory plant response rating: 0
Morningglory [9]; 500 g ai/ha
  Morningglory plant response rating: 0
pigweed; [17]
  Pigweed plant response rating (0 to 100 scale): 0
pigweed; [18]
  Plant response rating, Pigweed: 0
pigweed; 125 g ai/ha
  Pigweed plant response rating: 0
pigweed; 500 g ai/ha
  Pigweed plant response rating: 0
Velvetleaf [10]; [17]
  Velvetleaf plant response rating (0 to 100 scale): 0
Velvetleaf [10]; [18]
  Plant response rating, Velvetleaf: 0
Velvetleaf [10]; 125 g ai/ha
  Velvetleaf plant response rating: 0
Velvetleaf [10]; 500 g ai/ha
  Velvetleaf plant response rating: 0
blackgrass; 125 g ai/ha
  Blackgrass plant response rating: 0
blackgrass; 500 g ai/ha
  Blackgrass plant response rating: 0
wheat; 125 g ai/ha
  Wheat plant response rating: 0
wheat; 500 g ai/ha
  Wheat plant response rating: 0
Wild oat; 125 g ai/ha
  Oat, Wild plant response rating: 0
Wild oat; 500 g ai/ha
  Oat, Wild plant response rating: 0
rice
  Rice plant response rating: 0
[11]
  Sedge, Umbrella plant response rating: 0
ducksalad
  Ducksalad plant response rating: 0
Barnyardgrass [12]
  Barnyardgrass plant response rating: 0
